Measured values reported in the supplement of paper PMC8671470.

Experiments:
Experiment in all cases: cell viability (% survival relative to DMSO control); higher = less cytotoxic
Settings in all cases: 72 h
[1] = test system: myeloid leukemia patient primary cells Pat.10
Summary of the method: (§1)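 Thawed, Ficoll-purified mononuclear cells from AML or CML patients in RPMI 1640 with 10% FBS were seeded at 10,000 cells/well on 384-well plates pre-printed with 70 compounds at five tenfold concentrations, 1–10,000 nM, in duplicate, for 72 h. Viability was read by CellTiter-Glo and normalised to DMSO and 10 μM proteasome-inhibitor wells. Where given, area under the curve came from four-parameter log-logistic fits (drc, PharmacoGx R packages).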

[2] = test system: myeloid leukemia patient primary cells Pat.11
Summary of the method: as §1

[3] = test system: myeloid leukemia patient primary cells Pat.4
Summary of the method: as §1

[4] = test system: myeloid leukemia patient primary cells Pat.7
Summary of the method: as §1

## Sc1ncnc2nc[nH]c12 [6-mercaptopurine]
[1]; 1 nM
  cell viability: 59%
[1]; 10 nM
  cell viability: 63.4%
[1]; 100 nM
  cell viability: 70.1%
[1]; 1000 nM
  cell viability: 72.4%
[1]; 10000 nM
  cell viability: 56.6%
[2]; 1 nM
  cell viability: > 100%
[2]; 10 nM
  cell viability: 98.2%
[2]; 100 nM
  cell viability: 97.6%
[2]; 1000 nM
  cell viability: 97.9%
[2]; 10000 nM
  cell viability: 98.1%
[3]; 1 nM
  cell viability: 79.1%
[3]; 10 nM
  cell viability: 80%
[3]; 100 nM
  cell viability: 85.9%
[3]; 1000 nM
  cell viability: 88.2%
[3]; 10000 nM
  cell viability: 92.3%
[4]; 1 nM
  cell viability: > 100%
[4]; 10 nM
  cell viability: 78.2%
[4]; 100 nM
  cell viability: 66.1%
[4]; 1000 nM
  cell viability: 93.3%
[4]; 10000 nM
  cell viability: 88.8%

## Cc1noc2c1-c1ccccc1C(c1ccc(Cl)cc1)=N[C@H]2CC(N)=O [CPI-0610]
[1]; 1 nM
  cell viability: 68.5%
[1]; 10 nM
  cell viability: 91.9%
[1]; 100 nM
  cell viability: 29.6%
[1]; 1000 nM
  cell viability: 27.8%
[1]; 10000 nM
  cell viability: 39.2%
[2]; 1 nM
  cell viability: > 100%
[2]; 10 nM
  cell viability: 93%
[2]; 100 nM
  cell viability: 93.6%
[2]; 1000 nM
  cell viability: 54.3%
[2]; 10000 nM
  cell viability: 51.8%
[3]; 1 nM
  cell viability: 82.5%
[3]; 10 nM
  cell viability: 65.6%
[3]; 100 nM
  cell viability: 58.1%
[3]; 1000 nM
  cell viability: 6.43%
[3]; 10000 nM
  cell viability: 7.38%
[4]; 1 nM
  cell viability: > 100%
[4]; 10 nM
  cell viability: 97.1%
[4]; 100 nM
  cell viability: 84.1%
[4]; 1000 nM
  cell viability: 60.5%
[4]; 10000 nM
  cell viability: 58%

## Nc1ccn([C@@H]2O[C@H](CO)[C@@H](O)[C@@H]2O)c(=O)n1 [Cytarabine]
[1]; 1 nM
  cell viability: 89.9%
[1]; 10 nM
  cell viability: 45.1%
[1]; 100 nM
  cell viability: 67%
[1]; 1000 nM
  cell viability: 54.1%
[1]; 10000 nM
  cell viability: 13.9%
[2]; 1 nM
  cell viability: 95.7%
[2]; 10 nM
  cell viability: 93.6%
[2]; 100 nM
  cell viability: > 100%
[2]; 1000 nM
  cell viability: 89.3%
[2]; 10000 nM
  cell viability: 41.1%
[3]; 1 nM
  cell viability: 87.3%
[3]; 10 nM
  cell viability: 88.5%
[3]; 100 nM
  cell viability: 75.5%
[3]; 1000 nM
  cell viability: 75.1%
[3]; 10000 nM
  cell viability: 5.31%
[4]; 1 nM
  cell viability: > 100%
[4]; 10 nM
  cell viability: 50.7%
[4]; 100 nM
  cell viability: 59.9%
[4]; 1000 nM
  cell viability: 12.8%
[4]; 10000 nM
  cell viability: 4.95%

## CCN(CC)CCN(Cc1ccc(-c2ccc(C(F)(F)F)cc2)cc1)C(=O)Cn1c(SCc2ccc(F)cc2)nc(=O)c2c1CCC2 [Darapladib]
[1]; 1 nM
  cell viability: 66.6%
[1]; 10 nM
  cell viability: 77.8%
[1]; 100 nM
  cell viability: 12.3%
[1]; 1000 nM
  cell viability: 93.5%
[1]; 10000 nM
  cell viability: 4.94%
[2]; 1 nM
  cell viability: 87.2%
[2]; 10 nM
  cell viability: 98.3%
[2]; 100 nM
  cell viability: 85.3%
[2]; 1000 nM
  cell viability: 88.2%
[2]; 10000 nM
  cell viability: 0.357%
[3]; 1 nM
  cell viability: 73.2%
[3]; 10 nM
  cell viability: 84.2%
[3]; 100 nM
  cell viability: 67.9%
[3]; 1000 nM
  cell viability: 83%
[3]; 10000 nM
  cell viability: 0.925%
[4]; 1 nM
  cell viability: 63.7%
[4]; 10 nM
  cell viability: 74.4%
[4]; 100 nM
  cell viability: 40.1%
[4]; 1000 nM
  cell viability: 5.93%
[4]; 10000 nM
  cell viability: < 0%

## CC12CCC(O)CC1CCC1C2CCC2(C)C(C3=CC(=O)OC3)CCC12O (stereo not given) [Digitoxigenin]
[1]; 1 nM
  cell viability: 71.9%
[1]; 10 nM
  cell viability: 52.2%
[1]; 100 nM
  cell viability: > 100%
[1]; 1000 nM
  cell viability: 96.8%
[1]; 10000 nM
  cell viability: > 100%
[2]; 1 nM
  cell viability: 99.8%
[2]; 10 nM
  cell viability: 94.1%
[2]; 100 nM
  cell viability: 94.8%
[2]; 1000 nM
  cell viability: 31.9%
[2]; 10000 nM
  cell viability: 9.33%
[3]; 1 nM
  cell viability: 89.8%
[3]; 10 nM
  cell viability: 81.8%
[3]; 100 nM
  cell viability: 81.6%
[3]; 1000 nM
  cell viability: 5.88%
[3]; 10000 nM
  cell viability: 1.81%
[4]; 1 nM
  cell viability: 94.8%
[4]; 10 nM
  cell viability: 91.8%
[4]; 100 nM
  cell viability: 67.9%
[4]; 1000 nM
  cell viability: > 100%
[4]; 10000 nM
  cell viability: > 100%

## C[C@H]1O[C@@H](O[C@H]2[C@@H](O)C[C@H](O[C@H]3[C@@H](O)C[C@H](O[C@H]4CC[C@@]5(C)[C@H](CC[C@@H]6[C@@H]5C[C@@H](O)[C@]5(C)[C@@H](C7=CC(=O)OC7)CC[C@]65O)C4)O[C@@H]3C)O[C@@H]2C)C[C@H](O)[C@@H]1O [Digoxin]
[1]; 1 nM
  cell viability: 91.9%
[1]; 10 nM
  cell viability: 57.7%
[1]; 100 nM
  cell viability: 98.8%
[1]; 1000 nM
  cell viability: 91.5%
[1]; 10000 nM
  cell viability: > 100%
[2]; 1 nM
  cell viability: > 100%
[2]; 10 nM
  cell viability: 97.6%
[2]; 100 nM
  cell viability: 48.8%
[2]; 1000 nM
  cell viability: 12.4%
[2]; 10000 nM
  cell viability: 7.54%
[3]; 1 nM
  cell viability: 93%
[3]; 10 nM
  cell viability: 76.1%
[3]; 100 nM
  cell viability: 67.4%
[3]; 1000 nM
  cell viability: 3.24%
[3]; 10000 nM
  cell viability: 4.37%
[4]; 1 nM
  cell viability: 76.9%
[4]; 10 nM
  cell viability: 86.8%
[4]; 100 nM
  cell viability: 69%
[4]; 1000 nM
  cell viability: 89%
[4]; 10000 nM
  cell viability: > 100%

## Clc1ccc(COC(Cn2ccnc2)c2ccc(Cl)cc2Cl)cc1 (stereo not given) [Econazole]
[1]; 1 nM
  cell viability: 70.3%
[1]; 10 nM
  cell viability: 85.8%
[1]; 100 nM
  cell viability: 73.5%
[1]; 1000 nM
  cell viability: 34.5%
[1]; 10000 nM
  cell viability: < 0%
[2]; 1 nM
  cell viability: 89.9%
[2]; 10 nM
  cell viability: 92.9%
[2]; 100 nM
  cell viability: 99.9%
[2]; 1000 nM
  cell viability: 88.6%
[2]; 10000 nM
  cell viability: 73.3%
[3]; 1 nM
  cell viability: 88%
[3]; 10 nM
  cell viability: 94.6%
[3]; 100 nM
  cell viability: 81.7%
[3]; 1000 nM
  cell viability: 88.5%
[3]; 10000 nM
  cell viability: 74.9%
[4]; 1 nM
  cell viability: 72.2%
[4]; 10 nM
  cell viability: > 100%
[4]; 100 nM
  cell viability: 93%
[4]; 1000 nM
  cell viability: 63.4%
[4]; 10000 nM
  cell viability: < 0%

## C[C@]12O[C@H](C[C@]1(O)CO)n1c3ccccc3c3c4c(c5c6ccccc6n2c5c31)CNC4=O [Lestaurtinib]
[1]; 1 nM
  cell viability: 64.5%
[1]; 10 nM
  cell viability: 34.5%
[1]; 100 nM
  cell viability: 45.6%
[1]; 1000 nM
  cell viability: 73.9%
[1]; 10000 nM
  cell viability: 9.05%
[2]; 1 nM
  cell viability: 96.4%
[2]; 10 nM
  cell viability: 74.7%
[2]; 100 nM
  cell viability: 41.8%
[2]; 1000 nM
  cell viability: 56.9%
[2]; 10000 nM
  cell viability: 1.92%
[3]; 1 nM
  cell viability: 93.5%
[3]; 10 nM
  cell viability: 64.5%
[3]; 100 nM
  cell viability: 8.79%
[3]; 1000 nM
  cell viability: 31.2%
[3]; 10000 nM
  cell viability: 2.37%
[4]; 1 nM
  cell viability: 88.3%
[4]; 10 nM
  cell viability: 62.3%
[4]; 100 nM
  cell viability: > 100%
[4]; 1000 nM
  cell viability: 63.1%
[4]; 10000 nM
  cell viability: < 0%

## CC(Cc1ccc(O)c(O)c1)C(C)Cc1ccc(O)c(O)c1 (stereo not given) [Masoprocol]
[1]; 1 nM
  cell viability: 56.6%
[1]; 10 nM
  cell viability: 47.4%
[1]; 100 nM
  cell viability: 89.9%
[1]; 1000 nM
  cell viability: 42.2%
[1]; 10000 nM
  cell viability: > 100%
[2]; 1 nM
  cell viability: 94.1%
[2]; 10 nM
  cell viability: > 100%
[2]; 100 nM
  cell viability: 98.8%
[2]; 1000 nM
  cell viability: 89.9%
[2]; 10000 nM
  cell viability: 80%
[3]; 1 nM
  cell viability: 77.7%
[3]; 10 nM
  cell viability: 91.8%
[3]; 100 nM
  cell viability: > 100%
[3]; 1000 nM
  cell viability: 81.8%
[3]; 10000 nM
  cell viability: 19.3%
[4]; 1 nM
  cell viability: > 100%
[4]; 10 nM
  cell viability: 85.3%
[4]; 100 nM
  cell viability: 89%
[4]; 1000 nM
  cell viability: 31.9%
[4]; 10000 nM
  cell viability: 2.01%

## COc1c(C)c2c(c(O)c1C/C=C(\C)CCC(=O)O)C(=O)OC2 [Mycophenolic acid]
[1]; 1 nM
  cell viability: 49.6%
[1]; 10 nM
  cell viability: 77.5%
[1]; 100 nM
  cell viability: 79.2%
[1]; 1000 nM
  cell viability: 69.8%
[1]; 10000 nM
  cell viability: 53.1%
[2]; 1 nM
  cell viability: 88.3%
[2]; 10 nM
  cell viability: > 100%
[2]; 100 nM
  cell viability: 91%
[2]; 1000 nM
  cell viability: > 100%
[2]; 10000 nM
  cell viability: 78.1%
[3]; 1 nM
  cell viability: 88.4%
[3]; 10 nM
  cell viability: 95%
[3]; 100 nM
  cell viability: 76.3%
[3]; 1000 nM
  cell viability: 89.2%
[3]; 10000 nM
  cell viability: 32.9%
[4]; 1 nM
  cell viability: 52.5%
[4]; 10 nM
  cell viability: 94.8%
[4]; 100 nM
  cell viability: 56.3%
[4]; 1000 nM
  cell viability: > 100%
[4]; 10000 nM
  cell viability: 99.3%

## CCOC(=O)N1c2ccc(C(F)(F)F)cc2[C@@H](N(Cc2cc(C(F)(F)F)cc(C(F)(F)F)c2)C(=O)OC)C[C@H]1CC [Torcetrapib]
[1]; 1 nM
  cell viability: 49.2%
[1]; 10 nM
  cell viability: 62.1%
[1]; 100 nM
  cell viability: 78.5%
[1]; 1000 nM
  cell viability: 44.5%
[1]; 10000 nM
  cell viability: 38.2%
[2]; 1 nM
  cell viability: 96.7%
[2]; 10 nM
  cell viability: 85.1%
[2]; 100 nM
  cell viability: 99.1%
[2]; 1000 nM
  cell viability: > 100%
[2]; 10000 nM
  cell viability: 97.5%
[3]; 1 nM
  cell viability: 86.9%
[3]; 10 nM
  cell viability: 86%
[3]; 100 nM
  cell viability: 74.1%
[3]; 1000 nM
  cell viability: 97%
[3]; 10000 nM
  cell viability: 56.7%
[4]; 1 nM
  cell viability: 84.5%
[4]; 10 nM
  cell viability: 58.4%
[4]; 100 nM
  cell viability: > 100%
[4]; 1000 nM
  cell viability: 50.5%
[4]; 10000 nM
  cell viability: 30%
